The values that follow come from the METLIN SMRT retention time set (Domingo-Almenara et al. 2019).

This data set in a line: gradient 5% acetonitrile 3 min, to 50% in 2 min, to 85% in 15 min, held 3 min, 100 µL/min. The note with it: column: Zorbax Extend-C18 2.1 x 50 mm; eluents: water / acetonitrile, 0.1% formic acid. The essentials: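 Pure standards were analyzed in mixtures of ~100 molecules using HPLC coupled to a quadrupole time-of-flight mass spectrometer, in both positive and negative ionization mode. Separation used a Zorbax Extend-C18 column (2.1 × 50 mm, 1.8 μm) at 100 μL/min, with water and acetonitrile each containing 0.1% formic acid. Dead and dwell volumes were 40 μL and 900 μL, and data were collected over 3 months. Retention time was read from computationally picked adduct peaks, each inspected manually.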
As for `CC1=C(c2ccc(C)cc2)S(=O)(=O)N=C1N1CCCN(C(=O)CC(C)(C)C)CC1`, the RP-LC retention time amounted to 888 s.
For the compound `O=C1CCCc2c1cc(C(=O)NCc1ccccn1)c(=O)n2-c1ccc(C(F)(F)F)cc1`, the RP-LC retention time was found to be 678 s.
For the compound `O=C(NCc1ccccc1Cl)C(=O)NCC1(CO)CC1`, the RP-LC retention time was 670 s.
Compound `CCCCN(C)CCCNC(=O)C1CCN(S(=O)(=O)CCC)CC1` came in with an RP-LC retention time of 968 s.
Consider `Cc1cc(C)c(NC(=O)Cn2cnc3onc(C)c3c2=O)c(C)c1`, for which the RP-LC retention time came to 764 s.
In the case of `Cc1cccc(NC(=O)Cn2cnc3c(c2=O)CCCC3)c1` it was 706 s; in that of `COc1ccc(CC(=O)Nc2cnn(-c3ncc(N(C)C)cn3)c2)c(Cl)c1`, 753 s.
Take `Cc1cc(C)cc(NC(=O)c2cc(C)n3nc(C)cc3n2)c1`: the RP-LC retention time is 1160 s.
The compound `COc1ccc(-c2ccc(SCC(=O)Nc3cccc([N+](=O)[O-])c3)nn2)cc1OC` registered an RP-LC retention time of 793 s.
In turn, `Cc1ccc(NC(=O)N2CCc3c(c(-c4nnc(-c5ccc(F)cc5)o4)nn3C)C2)cc1Cl` showed an RP-LC retention time of 1010 s.
`NC(=O)C1CCN(C(=O)CSc2nnc(-c3sc4ncccc4c3N)n2C2CC2)CC1` yielded an RP-LC retention time of 606 s.
